# Reference: patent publication US6713504B2, “Antifungal molecule 2-(3,4-dimethyl-2,5-dihydro-1H-pyrrol-2-yl)-1-methylethyl pentanoate” (Council of Scientific & Industrial Research, priority 2002, dated 2004)
# How the values were obtained:
# RAW cells = experiment: In vitro cell cytotoxicity by MTT assay; type: cell-based
# Description: (§1) The stock culture of RAW cells was obtained from National Facility for Cell and Tissue Culture, Pune.
# (§2) The stock solution of the compound was prepared by dissolving 2.5 mg of the purified compound in minimum amount of DMSO and then diluted with double distilled water to make the final volume 1.0-ml.
# (§3) The cells were harvested at the log phase of growth confluency from the flask. The homogeneous suspension of cells was prepared in 2.0 ml of culture medium. The number of cells in the suspension was counted using a hemocytometer and the cell suspension was diluted in such a way so as to obtain 5×10^7 viable cells per ml. The viability of the cells was checked with trypan blue dye exclusion test. The cytotoxicity assay was performed in 96 wells flat bottom tissue culture plates (Nunc Nunclon). The cells (5×10^6) in 100.0 μl volume were seeded into each well. The plate was incubated at 37° C. in atmosphere of 5% (v/v) CO2 for 8 h. The wells were examined microscopically for the formation of monolayer of the cells. […] In +ve control wells, a known cytotoxic protein obtained from A. fumigatus, was used. The ZnSO4 (8.0 mg/L) was used as another +ve toxic material in another set of wells. In negative control wells equivalent amount of the solvent was used. The duplicate wells were used for each concentration of the test compound. The plates were incubated at 37° C. in 5% (v/v) CO2 incubator overnight (12 h). The medium along with floating dead cells from the wells was removed by inverting the plate. Thus, only the live cells sticking to the surface of plate were left in the wells. […] After adding the dye to the wells, the plate was kept at 37° C. in 5% CO2 for 1 h. The tissue culture plate was removed from the incubator and all the dye was aspirated. Only live cells took up the dye. The cells were lysed by adding 100.0 μl of isopropanol-HCl to the wells. After lysis of the cells, the plates were read at 540 nm using plate reader (Spectra Max 190, Molecular Device).
# (§4) The toxicity of the compound was expressed as percentage with respect to that obtained in −ve control sample. The percent cytotoxicity was calculated using the formula given below. [formula]
# (§5) The percent cytotoxicity was plotted against log concentration of the compound to find out concentration which was cytotoxic to 50% of the cells (CT50).
# [1] = In vitro cell cytotoxicity by MTT assay; type: cell-based; conditions: mouse; 1250.0 μg/ml; RAW cells; MTT; read-out: percent cytotoxicity
# Description: as §1, §2, §3, §4, §5
# A. flavus = experiment: Disc diffusion assay; type: cell-based; conditions: concentration developing zone of inhibition of 6.0-mm diameter
# Description: (§6) Pathogenic strains of fungi were obtained from the Mycology Department of Vallabhbhai Patel Chest Institute, Delhi. All the strains were grown on Sabouraud dextrose agar at 37° C. The conidia form these cultures were harvested and suspended in Sabouraud maltose broth. The number of conidia was counted using haemocytometer and their number in the suspension was adjusted to as per need of the experiment.
# (§7) The disc diffusion test was performed as per described in the section of details of invention. Amphotericin B 1.25 μg/disc was used in assay as positive control standard drug. Additional discs impregnated with equivalent amount of solvent were also used in the assay as negative controls (FIG. 5).
# A. niger = experiment: Disc diffusion assay; type: cell-based
# Description: as §6, §7
# A. fumigatus infection = experiment: In vivo efficacy (survival) in mice model of aspergillosis; parameters: species or system Balb/C mice; conditions: 7 doses
# Description: The mice model of aspergillosis described by Dixon et al (1989), was used to study the effects of compound on in vivo infection of A. fumigatus.
# The animals were housed in the micro-barrier cages on sterile bedding and fed ad libitum water and food. The mice were divided into 6 groups and each group contained 8-10 animals. The mice were infected experimentally with A. fumigatus. Three days prior to infection with conidia, mice were injected subcutaneously with 3 doses (250.0 mg/kg/day) of cortisone acetate in 400.0 μl of PBS. On the infection day, each mouse received 2×10^7 conidia by nasal instillation of a single droplet of conidial suspension.
# A. fumigatus (190/96) isolate was grown on Sabouraud dextrose agar plates at 37° C. for 4 days. The conidia were collected from the culture plates using PBS (pH 7.2) containing 0.05% Tween 80 (Sigma Chemicals) and the suspension was filtered through sterile glass wool. The conidia were pelleted by centrifugation at 2000 rpm and re-suspended in PBS, pH 7.2. The number of conidia was counted and adjusted to 1×10^8 conidia/ml. The viability of the conidia was determined by plating the dilutions of suspensions on Sabouraud dextrose agar.
# The purified compound (metelatropinyl ester) isolated from the D. metel was administered orally in the concentration ranging from 0.0, 25.0 50.0 100.0 200.0 and 400.0 mg/kg body weight to the mice infected experimentally with A. fumigatus.
# The dosing of the animals (cortisone treated and challenged) with compound in 6 different groups was initiated within 30 min after challenge with A. fumigatus conidia.
# Group I: The mice were treated orally with 7 doses of 25.0 mg/kg/day of the compound.
# Group II: The animals infected with A. fumigatus conidia were given 50.0 mg/kg/day of the compound for 7 days orally.
# Group III: The animals in this group were given 7 oral doses of 100.0 mg/kg/day of the compound.
# Group IV: In this group of animals, 7 oral doses of the compound (200.0 mg/kg/day) were given.
# Group V: The animals of this group were treated with 7 doses of 400.0 mg/kg/day orally over a period of 7 days.
# Group VI: The animals of this group acted as control and were treated orally with 7 doses of 400 μl PBS containing solvent.
# The animals were housed in properly labeled cages and kept under close watch for weight loss and the mortality. The survival rate over a period of 10 days was calculated and the fungal burden in survivors determined (Clemons and Stevens, 1994).
# The Balb/C mice of 6-8 weak of age of either sex, weighing 15-20 g, were housed in micro-barrier cages on sterile bedding and fed ad libitum water and food. The animals were divided into 6 groups and each group contained 8-10 mice.
structure (smiles),measurement,setting,value
"CCCCC(=O)OC(C)CC1NCC(C)=C1C (stereo not drawn) [PC-1, 2-(3,4-dimethyl-2,5-dihydro-1H-pyrrol-2-yl)-1-methylethyl pentanoate]",concentration completely non-toxic to the cells,"RAW cells; RAW cells, MTT",up to 312.5 μg/ml
same,CT50 (dose cytotoxic to 50% of the cells),"RAW cells; RAW cells, MTT, 12 h",889.2 µg/mL
same,less cytotoxic than the standard antifungal drug Amphotericin B,RAW cells; comparison with Amphotericin B,57.8 times
same,"cytotoxicity at 12 h, 1250 μg/ml",[1],76%
same,MIC by disc diffusion assay,A. flavus,5 μg/disc
same,zone of inhibition at 20 µg/disc,"A. niger; Aspergillus niger, 20.0 μg/disc, 48 hrs, read-out: Diameter of zone of inhibition",9.4 mm
same,MIC by disc diffusion assay,A. niger; concentration developing zone of inhibition of 6.0-mm diameter,5 μg/disc
same,survived up to 10th day,"A. fumigatus infection; 25.0 mg/kg body weight oral, 1 out of 10",10%
same,survived up to 10th day,"A. fumigatus infection; 50.0 mg/kg body weight oral, 1 out of 8",12.5%
same,survived up to 10th day,"A. fumigatus infection; 100.0 mg/kg body weight oral, 3 out of 9",33.3%
same,survived up to 10th day,"A. fumigatus infection; 200.0 mg/kg body weight oral, 4 out of 9",44.4%
same,survived up to 10th day,"A. fumigatus infection; 400.0 mg/kg body weight oral, 8 out of 10",80%
